Laboratory results as given in patent publication US11529422B2, “Polymer linkers and their uses” (priority 2016, dated 2022).
Where a SMILES comes first, the peptide text is derived from it. [ ]: non-standard residue; d: D form. The star is where a group is joined. Dolaproine = CO[C@@H]([C@@H]1CCCN1)[C@@H](C)C(=O)O; Dil = CC[C@H](C)[C@H](NC)[C@@H](CC(=O)O)OC; NMe2Val = CC(C)[C@@H](C(=O)*)N(C)C

What was measured:
[1] = system: HCC1954 cells; test: Cell Viability Assay (CellTiter-Glo), HCC1954; assay type: cell-based
Description: (§1) Compounds and conjugates were tested for their activity using the Cell Viability Assay (CellTiter-Glo® Luminescent Cell Viability Assay from Promega), which measures the number of viable cells in culture after treatment with the inventive compounds or conjugates for 72 hours based on quantitation of the ATP present (Cell Viability. IC50).

[2] = system: SK-BR-3 cells; test: Cell Viability Assay (CellTiter-Glo), SK-BR-3; assay type: cell-based
Description: as §1

[3] = system: MCF7 breast cancer cell; test: Cell Viability Assay (CellTiter-Glo), MCF7; assay type: cell-based; settings: MCF7, Table 2 (another assay)
Description: as §1

[4] = system: NCI-N87 cells; test: Cell Viability Assay (CellTiter-Glo), NCI-N87; assay type: cell-based
Description: as §1

[5] = system: BT-474 cells; test: Cell Viability Assay (CellTiter-Glo), BT-474; assay type: cell-based
Description: as §1

[6] = system: HER2 expressing cancer cell lines; settings: for activity compared with free Auristatin F, in words: summary of Table 1
Description: Three HER2 expressing breast cancer cell lines (BT474, HCC1954 and SK-BR-3) and HER2 expressing gastric cancer cell line NCI-N87 were used in the viability assay. The cells were placed in opaque-walled 96-well plate and allowed to adhere overnight at 37° C. in 5% CO2 and 95% humidity atmosphere. Cell density per well: 7000 (BT474), 3000 (HCC1954), 5000 (NCI-N87), 4000 (SK-BR-3). The test compounds or conjugates were added to experimental wells, and incubate at 37° C. in 5% CO2 and 95% humidity atmosphere for 72 hours. The plates were equilibrated at room temperature for 30 min. CellTiter-Glo® reagent equal to the volume of cell culture medium present in each well was added. After cell lysis on an orbital shaker for 2 min, the plate was incubated at room temperature for 10 min. Luminescence were recorded using EnVision® Multilabel Reader (PerkinElmer, 2104-0010A). GraphPad Prism 5.0 was used to analyze the data. The dose response curves were determined, and the IC50 value was calculated.
Another assay measured the IC50 values for compounds 24 and 25 on the same cell lines and MCF7 breast cancer cell.

[7] = HCC1954, Table 2 (another assay)
[8] = SK-BR-3, Table 2 (another assay)
[9] = NCI-N87, Table 2 (another assay)
[10] = BT-474, Table 2 (another assay)

Compound	IC50 ([1]; HCC1954, 72 hours, Table 1) [nM]	IC50 [1, 7] [nM]	IC50 ([2]; SK-BR-3, 72 hours, Table 1) [nM]	IC50 [2, 8] [nM]	IC50 [3] [nM]	IC50 ([4]; NCI-N87, 72 hours, Table 1) [nM]	IC50 [4, 9] [nM]	IC50 ([5]; BT-474, 72 hours, Table 1) [nM]	IC50 [5, 10] [nM]	activity compared with free Auristatin F, in words [6]	activity compared with compound 24 and controls, in words ([6]; summary of Table 2, same cell lines and MCF7)
CC[C@H](C)[C@@H]([C@@H](CC(=O)N1CCC[C@H]1[C@H](OC)[C@@H](C)C(=O)N[C@@H](Cc1ccccc1)C(=O)O)OC)N(C)C(=O)[C@@H](NC(=O)[C@H](C(C)C)N(C)C)C(C)C [Auristatin F, reference compound] (NMe2Val-V[Dil][Dolaproine]F-OH)	38.2	200	51	233	1950	69.8	386	264	1540		
N.N.[Cl][Pt][Cl] [Cisplatin, reference compound]	6050	6230	1920	871	9150	4560	1660	> 100000	38500		
poly(1-hydroxymethylethylene hydroxy-methyl formal)-SPA-(auristatin F 2-(2-hydroxy-ethoxy)-ethylamide L-Alanine)-(Trastuzumab-MCC) [Compound 16]	0.13		22			55.6		0.39		inhibition of HER2 increases significantly	
poly(1-hydroxymethylethylene hydroxy-methyl formal)-SPA-(auristatin F 2-(2-hydroxy-ethoxy)-ethylamide L-Alanine)-SSPy [Compound 15]	23.9		37			> 500		57.4		activity similar to free Auristatin F	
poly(1-hydroxymethylethylene hydroxy-methyl formal)-SPA-(auristatin F 2-(2-hydroxy-ethoxy)-ethylamide L-Alanine)-Trastuzumab [Compound 17]	< 0.05		< 0.05			< 0.05		< 0.05		inhibition of HER2 increases significantly	
poly(1-hydroxymethylethylene hydroxy-methyl formal)-SPA-(auristatin F 2-(2-hydroxy-ethoxy)-ethylamide L-Alanine)-Trastuzumab [Compound 25]		0.2		0.1	3.3		0.3		0.4		significant increase in activity as compared to compound 24
poly(1-hydroxymethylethylene hydroxy-methyl formal)-SPA-(auristatin F 2-(2-hydroxy-ethoxy)-ethylamide L-Alanine)-maleimide [Compound 14]	32.2		48			> 500		87.9		activity similar to free Auristatin F	
poly(1-hydroxymethylethylene hydroxy-methyl formal)-SPA-(auristatin F 2-(2-hydroxy-ethoxy)-ethylamide L-Alanine)-maleimide [Compound 24]		45.9		56.6	230		91.5		58		
